In ChEMBL document CHEMBL4334453, “Callistemonols A and B, Potent Antimicrobial Acylphloroglucinol Derivatives with Unusual Carbon Skeletons from Callistemon viminalis” (2019):
≈ marks a conversion by molar mass, not a printed value. Calls of active or inactive are those of the source. No cut-off for these calls is given here.

Columns and labels:
[1] = system: Staphylococcus aureus; experiment: Antibacterial activity against methicillin-resistant Staphylococcus aureus JCSC 4469 incubated overnight by CLSI protocol based microdilution assay; assay type: functional
[2] = system: Bacillus cereus; experiment: Bactericidal activity against Bacillus cereus CMCC 63302 measured after 24 hrs by sub-culturing; assay type: functional; conditions: CMCC 63302, 24 h
[3] = system: Staphylococcus aureus; experiment: Bactericidal activity against Staphylococcus aureus CMCC 26003 measured after 24 hrs by sub-culturing; conditions: CMCC 26003, 24 h
[4] = system: Staphylococcus aureus; experiment: Bactericidal activity against methicillin-resistant Staphylococcus aureus JCSC 4744 assessed as reduction in cell survival at 8 fold MIC measured after 24 hrs by time-kill assay; assay type: functional, organism-based
[5] = system: Staphylococcus aureus; experiment: Antibacterial activity against Staphylococcus aureus CMCC 26003 incubated overnight by CLSI protocol based microdilution assay
[6] = system: Escherichia coli; experiment: Antibacterial activity against Escherichia coli ATCC 8739 incubated overnight by CLSI protocol based microdilution assay; assay type: functional
[7] = system: Staphylococcus aureus; experiment: Bactericidal activity against methicillin-resistant Staphylococcus aureus JCSC 4744 assessed as reduction in cell survival by measuring colony forming units at MIC measured within 4 hrs by time-kill assay; assay type: functional
[8] = system: Staphylococcus aureus; experiment: Induction of cell lysis in methicillin-resistant Staphylococcus aureus JCSC 4744 assessed as formation of membrane fissures at 8 fold MIC after 4 hrs by scanning electron microscopy; assay type: functional, organism-based
[9] = system: Staphylococcus aureus; experiment: Bactericidal activity against methicillin-resistant Staphylococcus aureus JCSC 4744 assessed as reduction in cell survival by measuring colony forming units at MIC after 24 hrs by time-kill assay relative to control; assay type: functional
[10] = system: Staphylococcus aureus; experiment: Disruption of membrane integrity in methicillin-reisitant Staphylococcus aureus JCSC 4744 measured after 4 hrs by SYTOX-greeen-based fluorescence assay; assay type: functional, organism-based
[11] = system: Staphylococcus aureus; experiment: Bactericidal activity against methicillin-resistant Staphylococcus aureus JCSC 4744 measured after 24 hrs by sub-culturing; assay type: functional; conditions: JCSC 4744, 24 h
[12] = system: Bacillus cereus; experiment: Antibacterial activity against Bacillus cereus CMCC 63302 incubated overnight by CLSI protocol based microdilution assay; assay type: functional
[13] = system: Staphylococcus aureus; experiment: Antibacterial activity against methicillin-resistant Staphylococcus aureus JCSC 4744 incubated overnight by CLSI protocol based microdilution assay; assay type: functional
[14] = system: Staphylococcus aureus; experiment: Induction of cell lysis in methicillin-resistant Staphylococcus aureus JCSC 4744 assessed as formation of membrane disruption at 8 fold MIC after 4 hrs by scanning electron microscopy; assay type: functional, organism-based
[15] = system: Staphylococcus aureus; experiment: Induction of cytoplasmic membrane depolarization in methicillin-resistant Staphylococcus aureus JCSC 4744 at 0.5 to 8 fold MIC by DiSC3-5 dye-based fluorescence assay; assay type: functional, organism-based
[16] = system: Staphylococcus aureus; experiment: Bactericidal activity against methicillin-resistant Staphylococcus aureus JCSC 4469 measured after 24 hrs by sub-culturing; assay type: functional; conditions: JCSC 4469, 24 h
[17] = system: Staphylococcus aureus; experiment: Bactericidal activity against methicillin-resistant Staphylococcus aureus JCSC 4744 assessed as reduction in cell survival by measuring colony forming units at MIC measured within 4 hrs by time-kill assay relative to control; assay type: functional
[18] = system: Staphylococcus aureus; experiment: Disruption of membrane integrity in methicillin-reisitant Staphylococcus aureus JCSC 4744 at 10 ug/ml measured within 2 mins by SYTOX-greeen-based fluorescence assay; assay type: functional, organism-based

## COc1cc(O)c(C(=O)CC(C)C)c2c1[C@]1(O)C(O)=C(C(=O)C(C)C)C(=O)C[C@]1(OC)O2
[1]
  MIC: 3.12 µg/mL (≈ 6.96 µM)
[2]
  MBC: 50 µg/mL (≈ 111 µM)
[3]
  MBC: 50 µg/mL (≈ 111 µM)
[4]
  Activity: Active
[5]
  MIC: 25 µg/mL (≈ 55.7 µM)
[6]
  MIC: > 100 µg/mL
[7]
  Activity: 2 log10CFU/ml
[8]
  Activity: Active
[9]
  inhibition (INH): 100%
[10]
  Activity: Active
[11]
  MBC: 6.25 µg/mL (≈ 13.9 µM)
[12]
  MIC: 25 µg/mL (≈ 55.7 µM)
[13]
  MIC: 3.12 µg/mL (≈ 6.96 µM)
[14]
  Activity: Active
[15]
  Activity: Active
[16]
  MBC: 6.25 µg/mL (≈ 13.9 µM)
[17]
  inhibition (INH): 99%

## CC[C@H](C)[C@H](NC(=O)CN)C(=O)NCC(=O)N[C@@H](C)C(=O)N[C@H](C(=O)N[C@@H](CC(C)C)C(=O)N[C@@H](CCCCN)C(=O)N[C@H](C(=O)N[C@@H](CC(C)C)C(=O)N[C@H](C(=O)N[C@H](C(=O)NCC(=O)N[C@@H](CC(C)C)C(=O)N1CCC[C@H]1C(=O)N[C@@H](C)C(=O)N[C@@H](CC(C)C)C(=O)N[C@H](C(=O)N[C@@H](CO)C(=O)N[C@@H](Cc1c[nH]c2ccccc12)C(=O)N[C@H](C(=O)N[C@@H](CCCCN)C(=O)N[C@@H](CCCNC(=N)N)C(=O)N[C@@H](CCCCN)C(=O)N[C@@H](CCCNC(=N)N)C(=O)N[C@@H](CCC(N)=O)C(=O)N[C@@H](CCC(N)=O)C(N)=O)[C@@H](C)CC)[C@@H](C)CC)[C@@H](C)O)[C@@H](C)O)C(C)C)C(C)C
[18]
  Activity: Active

## CN[C@H](CC(C)C)C(=O)N[C@H]1C(=O)N[C@@H](CC(N)=O)C(=O)N[C@H]2C(=O)N[C@H]3C(=O)N[C@H](C(=O)N[C@H](C(=O)O)c4cc(O)cc(O)c4-c4cc3ccc4O)[C@H](O)c3ccc(c(Cl)c3)Oc3cc2cc(c3O[C@@H]2O[C@H](CO)[C@@H](O)[C@H](O)[C@H]2O[C@H]2C[C@](C)(N)[C@H](O)[C@H](C)O2)Oc2ccc(cc2Cl)[C@H]1O [VANCOMYCIN]
[1]
  MIC: 0.78 µg/mL (≈ 0.538 µM)
[3]
  MBC: 2.5 µg/mL (≈ 1.73 µM)
[5]
  MIC: 1.56 µg/mL (≈ 1.08 µM)
[6]
  MIC: 50 µg/mL (≈ 34.5 µM)
[7]
  Activity: 2 log10CFU/ml
[11]
  MBC: 2.5 µg/mL (≈ 1.73 µM)
[12]
  MIC: 50 µg/mL (≈ 34.5 µM)
[13]
  MIC: 0.78 µg/mL (≈ 0.538 µM)
[16]
  MBC: 2.5 µg/mL (≈ 1.73 µM)
[17]
  inhibition (INH): 99%

## COC1=C(C(=O)CC(C)C)C(=O)C(O)C1(C)C (centres undefined)
[1]
  MIC: 3.12 µg/mL (≈ 13 µM)
[2]
  MBC: 25 µg/mL (≈ 104 µM)
[3]
  MBC: 6.25 µg/mL (≈ 26 µM)
[5]
  MIC: 3.12 µg/mL (≈ 13 µM)
[6]
  MIC: > 100 µg/mL
[7]
  Activity: 2 log10CFU/ml
[8]
  Activity: Active
[9]
  inhibition (INH): 100%
[10]
  Activity: Active
[11]
  MBC: 3.12 µg/mL (≈ 13 µM)
[12]
  MIC: 12.5 µg/mL (≈ 52 µM)
[13]
  MIC: 1.56 µg/mL (≈ 6.49 µM)
[14]
  Activity: Active
[15]
  Activity: Active
[16]
  MBC: 6.25 µg/mL (≈ 26 µM)
[17]
  inhibition (INH): 99%
